What was measured:
[1] = Compound was evaluated for inhibition of beta-galactosidase from aspergillus oryzae (sigma G 7256).
[2] = Compound was evaluated for inhibition of alpha-fucosidase from bovine kidney(sigma F 5884).
[3] = Compound was evaluated for inhibition of alpha-galactosidase from green coffee beans (sigma G 8507).
[4] = Inhibition of jack bean alpha-mannosidase
[5] = Compound was evaluated for inhibition of beta-glucosidase from almonds(sigma G 4511).

CCCCN1CC(C)C(O)C(O)C1 (stereo not given) [1-Butyl-5-methyl-piperidine-3,4-diol]
IC50 [1]: > 1000 µM
IC50 [2]: 270 µM
IC50 [3]: > 1000 µM
IC50 [4]: > 1000 µM
IC50 [5]: 80 µM

Source: BindingDB's records for doi:10.1016/0960-894X(96)00068-6 (1996)
